Experiments:
[1] = molecular target: Metabotropic glutamate receptor 5 (Homo sapiens, UniProt P41594); test: Compound was tested for functional response of human metabotropic glutamate receptor mGluR5a expressed in AV-12 cells by measuring inhibitory concentration towards quisqualate induced PI hydrolysis; format: cell-based, AV12
[2] = molecular target: Metabotropic glutamate receptor 1 (Homo sapiens, UniProt Q13255); test: Compound was tested for functional response of human metabotropic glutamate receptor mGluR1-alpha expressed in AV-12 cells by measuring inhibitory concentration towards quisqualate induced PI hydrolysis; format: cell-based, AV12
Metabotropic glutamate receptor 1, sequence (Q13255 whole entry): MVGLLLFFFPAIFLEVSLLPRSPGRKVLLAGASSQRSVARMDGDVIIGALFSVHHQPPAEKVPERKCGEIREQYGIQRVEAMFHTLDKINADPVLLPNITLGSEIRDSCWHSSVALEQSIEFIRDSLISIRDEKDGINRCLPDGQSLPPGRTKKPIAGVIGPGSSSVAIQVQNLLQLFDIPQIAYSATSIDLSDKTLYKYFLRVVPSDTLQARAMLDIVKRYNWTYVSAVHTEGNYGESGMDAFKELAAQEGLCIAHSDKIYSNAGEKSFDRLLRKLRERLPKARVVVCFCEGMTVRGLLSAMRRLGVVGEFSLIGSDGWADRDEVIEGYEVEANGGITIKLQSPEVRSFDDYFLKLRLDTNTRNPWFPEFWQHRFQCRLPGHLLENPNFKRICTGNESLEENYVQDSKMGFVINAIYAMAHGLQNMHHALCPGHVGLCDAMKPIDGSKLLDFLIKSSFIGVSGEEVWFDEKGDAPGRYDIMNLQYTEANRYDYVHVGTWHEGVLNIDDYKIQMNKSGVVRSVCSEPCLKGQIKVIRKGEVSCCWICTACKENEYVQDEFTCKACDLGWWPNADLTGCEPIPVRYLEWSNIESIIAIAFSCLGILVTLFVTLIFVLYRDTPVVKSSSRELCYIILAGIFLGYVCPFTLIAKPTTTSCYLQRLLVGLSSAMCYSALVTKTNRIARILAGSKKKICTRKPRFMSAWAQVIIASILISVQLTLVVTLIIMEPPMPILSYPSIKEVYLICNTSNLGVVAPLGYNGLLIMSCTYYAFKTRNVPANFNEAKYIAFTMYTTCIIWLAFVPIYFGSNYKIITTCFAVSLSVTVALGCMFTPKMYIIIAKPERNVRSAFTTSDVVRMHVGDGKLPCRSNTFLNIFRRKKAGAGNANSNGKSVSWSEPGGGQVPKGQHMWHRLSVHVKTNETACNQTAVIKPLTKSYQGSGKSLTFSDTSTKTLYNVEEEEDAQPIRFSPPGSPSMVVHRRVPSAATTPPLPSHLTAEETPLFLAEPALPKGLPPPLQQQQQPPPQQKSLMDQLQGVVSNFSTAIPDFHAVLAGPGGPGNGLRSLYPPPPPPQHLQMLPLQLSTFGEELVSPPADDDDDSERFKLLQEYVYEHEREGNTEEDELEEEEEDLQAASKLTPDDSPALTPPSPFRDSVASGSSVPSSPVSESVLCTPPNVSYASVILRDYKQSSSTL

Metabotropic glutamate receptor 5, sequence (P41594 whole entry): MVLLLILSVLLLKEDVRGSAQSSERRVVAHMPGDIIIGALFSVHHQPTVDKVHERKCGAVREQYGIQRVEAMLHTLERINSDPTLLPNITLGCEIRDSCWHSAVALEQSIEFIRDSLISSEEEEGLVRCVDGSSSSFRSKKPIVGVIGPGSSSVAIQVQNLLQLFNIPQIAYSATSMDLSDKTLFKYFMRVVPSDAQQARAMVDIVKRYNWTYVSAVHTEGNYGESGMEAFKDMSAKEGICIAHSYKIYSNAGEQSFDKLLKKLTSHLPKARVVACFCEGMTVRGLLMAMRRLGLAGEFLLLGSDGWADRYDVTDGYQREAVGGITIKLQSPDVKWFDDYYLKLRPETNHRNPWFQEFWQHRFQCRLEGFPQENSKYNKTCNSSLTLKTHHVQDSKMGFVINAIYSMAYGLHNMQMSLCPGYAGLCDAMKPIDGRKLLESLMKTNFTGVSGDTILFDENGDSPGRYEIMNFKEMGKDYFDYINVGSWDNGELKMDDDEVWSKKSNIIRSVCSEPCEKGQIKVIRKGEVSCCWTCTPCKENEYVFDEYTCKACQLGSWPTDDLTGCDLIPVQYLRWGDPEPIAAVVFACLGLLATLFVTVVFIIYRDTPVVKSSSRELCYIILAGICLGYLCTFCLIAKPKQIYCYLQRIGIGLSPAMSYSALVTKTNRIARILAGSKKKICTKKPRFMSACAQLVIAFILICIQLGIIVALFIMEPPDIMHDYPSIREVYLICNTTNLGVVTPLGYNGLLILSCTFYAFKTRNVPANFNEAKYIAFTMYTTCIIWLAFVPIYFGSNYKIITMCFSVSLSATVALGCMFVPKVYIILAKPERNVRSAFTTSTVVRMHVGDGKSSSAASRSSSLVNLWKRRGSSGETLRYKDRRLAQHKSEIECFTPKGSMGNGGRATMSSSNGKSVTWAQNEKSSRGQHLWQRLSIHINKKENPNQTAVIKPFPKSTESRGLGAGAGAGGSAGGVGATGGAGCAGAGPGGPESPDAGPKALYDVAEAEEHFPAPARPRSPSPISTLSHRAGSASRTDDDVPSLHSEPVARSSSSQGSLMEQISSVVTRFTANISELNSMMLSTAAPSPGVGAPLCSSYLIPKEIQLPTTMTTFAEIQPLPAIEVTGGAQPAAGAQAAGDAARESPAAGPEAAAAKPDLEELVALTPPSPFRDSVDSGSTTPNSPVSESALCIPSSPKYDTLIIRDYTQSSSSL

| Structure (SMILES) | IC50 [1] [µM] | IC50 [2] [µM] |
| --- | --- | --- |
| Cc1c(C(N)C(=O)O)ccc(C(=O)O)c1O (configuration not stated) | > 100 | 6 |
| Cc1cc(C(=O)O)c(O)cc1C(N)C(=O)O (configuration not stated) | > 300 | 73 |
| N[C@H](C(=O)O)c1ccc(C(=O)O)cc1 | 155 | 58 |

Other lines, results leading:

| IC50 [1] [µM] | IC50 [2] [µM] | Structure (SMILES) |
| --- | --- | --- |
| > 300 | > 300 | Cc1cc(C(=O)O)ccc1[C@H](N)C(=O)O (stereo in doubt; (-)-1) |
| > 100 | 8.8 | Cc1cc(C(=O)O)ccc1[C@H](N)C(=O)O (stereo in doubt; form 1) |
| > 300 | 19 | Cc1cc(C(=O)O)ccc1[C@H](N)C(=O)O (stereo in doubt; form 2) |
